Measurements from patent US20240139219A1, “COMBINATION OF A SERCA2 INHIBITOR AND A STING ACTIVATOR FOR USE IN TREATING AND/OR PREVENTING CANCER” (Centre national de la recherche scientifique, priority 2021, published 2024).

Assays:
[1] = system: mouse embryonic fibroblasts (MEFs); assay: CellTiter-Glo Luminescent Cell Viability Assay in MEFs; type: cell-based; conditions: MEF; ADUS-100 5 μM, TA 12.5 nM or 6.25 nM, single or combined; viability 24 h after treatment (FIG. 6B)
Experimental: (§1) FIG. 6: Inhibition of SERCA2 (ATP2A2) in combination with STING agonist increases inflammatory responses in mouse embryonic fibroblasts (MEFs). • (A) MEFs were cultured for 24 h prior to 6 h stimulation with ADUS-100 (5 μM) in combination or not with 12.5 nM or 6.25 nM of thapsigargin (TA). Graphs present fold increase lfnβ mRNA levels, as compared to unstimulated cells. • (B) MEFs were cultured for 24 h prior to 6 h stimulation with ADUS-100 (5 μM) in combination or not with 12.5 nM or 6.25 nM of TA. Graphs present viability level, as compared to unstimulated cells.
(§2) Murine embryonic fibroblasts (MEF) and murine pancreatic cancer cell lines (KPC and Panc02) were maintained in Dulbecco's modified Eagle's medium (DMEM) supplemented with 10% fetal bovine serum (FBS), 1% penicillin/streptomycin and 1% glutamine.
(§3) Cells were treated during 6 h with ADUS-100 (5 μM) in presence or not of thapsigargin (TA) at 12.5 nM or 6.25 nM in complete medium.
The CellTiter-Glo® Luminescent Cell Viability Assay was used to determine the number of viable cells 24 h after treatment.

[2] = system: Panc02 cells; assay: CellTiter-Glo Luminescent Cell Viability Assay in Panc02 cells; type: cell-based, murine; conditions: ADUS-100 5 μM, TA 12.5 nM or 6.25 nM, single or combined, viability 24 h after treatment (FIG. 7D)
Experimental: (§4) FIG. 7: Inhibition of SERCA2 (ATP2A2) in combination of STING agonist increases inflammatory responses in cancer cell lines. • (A) The KPC murine pancreatic cell line was cultured 24 h prior to 6 h stimulation with ADUS-100 (5 μM) in combination or not with 12.5 nM or 6.25 nM TA. Graphs present fold increase Cxcl10 mRNA levels, an interferon responding gene, as compared to unstimulated cells. • (B) KPC cells were cultured 24 h prior 6 h stimulation with ADUS-100 (5 μM) in combination or not with 12.5 nM or 6.25 nM TA. Graphs present viability level, as compared to unstimulated cells. • (C) The Panco2 murine pancreatic cell line was cultured 24 h prior to 6 h stimulation with ADUS-100 (5 μM) in combination or not with 12.5 nM or 6.25 nM TA. Graphs present fold increase Cxcl10 mRNA levels, an interferon responding gene, as compared to unstimulated cells. • (D) Panco2 cells were cultured 24 h prior to 6 h stimulation with ADUS-100 (5 μM) in combination or not with 12.5 nM or 6.25 nM TA. Graphs present viability level, as compared to unstimulated cells.
(§5) Murine embryonic fibroblasts (MEF) and murine pancreatic cancer cell lines (KPC and Panc02) were maintained in Dulbecco's modified Eagle's medium (DMEM) supplemented with 10% fetal bovine serum (FBS), 1% penicillin/streptomycin and 1% glutamine. […]

[3] = system: KPC cells; assay: CellTiter-Glo Luminescent Cell Viability Assay in KPC cells; type: cell-based, murine; conditions: ADUS-100 5 μM, TA 12.5 nM or 6.25 nM, single or combined, viability 24 h after treatment (FIG. 7B)
Experimental: as §4, §5

[4] = system: mice; assay: In vivo toxicity, subcutaneous injection, macroscopic observation of skin at the injection site; conditions: 3 times one injection every 3 day, TA 50 nM, ADUS-100 5 μM, or both (Combi), data not shown
[5] = system: WT-MEF cells; assay: RT-qPCR of Ifnβ, Cxcl10 and Isg15 mRNA in WT-MEF stimulated with DMXAA; type: cell-based, murine; conditions: WT-MEF under DMXAA stimulation (200 μM, 2 h) in combination with CDN-1163 (FIG. 4A)
Experimental: WT-MEF cells were cultured 24 h prior 2h stimulation with DMXAA (200 μM) in combination or not with CPA (A-C) or thapsigargin (D-E). Graphs present fold increase Ifnβ, Cxcl10 and Isg15 mRNA levels, as compared to unstimulated cells. Graphs present mean value from duplicates.
WT-MEF cells were cultured 24 h prior 2 h stimulation with DMXAA (200 μM) in combination or not with CDN-1163 (A-C). Graphs present fold increase […], Cxcl10 and Isg15 mRNA levels, as compared to unstimulated cells. Graphs present mean value from duplicates.
(§6) Wild type murine embryonic fibroblasts (WT-MEF) and MEF-Trex^−/−, were maintained in Dulbecco's modified Eagle's medium (DMEM) supplemented with 10% fetal bovine serum (FBS), 1% penicillin/streptomycin and 1% glutamine.
(§7) RNA was extracted using Trizol (Invitrogen) and treated with TURBO DNase (Ambion) according to manufacturer's protocols. Reverse transcription (SuperScript IV reverse transcriptase, Invitrogen) and qPCR using specific primers were performed using SYBR Green Master Mix (Takara) and LightCycler 480 cycler (Roche). mRNA levels were normalized to HSP90 mRNA levels. […]
To this aim, WT-MEFs were treated with the CDN-1163 SERCA2 agonist, and interferon response gene levels were assessed (FIG. 4).

[6] = target: SERCA2 (Homo sapiens, UniProt P16615); conditions: read-out: IC50 in vitro for SERCA2 (for calcium entry); cited from earlier work
[7] = system: Trex1 KO MEFs; assay: RT-qPCR of Ifnβ, Cxcl10 and Isg15 mRNA in Trex1 KO MEF (model of chronic STING activation); type: cell-based, murine; conditions: Trex1-deficient MEF, 2 h treatment (FIG. 2)
Experimental: MEF^Trexl−/− cells were treated or not with CPA (A-C) or thapisgargin (D-E) for 2 h. Graphs present fold increase Ifnβ, Cxcl10 and Isg15 mRNA levels, as compared to unstimulated cells. Graphs present mean value from duplicates (A-C) or average of 2 independent experiments (D-F). Error bars: standard deviation.
as §6
RNA was extracted using Trizol (Invitrogen) and treated with TURBO DNase (Ambion) according to manufacturer's protocols. Reverse transcription (SuperScript IV reverse transcriptase, Invitrogen) and qPCR using specific primers were performed using SYBR Green Master Mix (Takara) and LightCycler 480 cycler (Roche). mRNA levels were normalized to HSP90 mRNA levels.
WT-MEF stimulated or not with DMXAA, a murine STING ligand which triggers STING-dependent inflammatory responses (FIG. 1); and Trex I KO MEF which is a model of chronic STING activation (FIG. 2).
WT-MEF or Trex I KO MEF were treated for 2 h with SERCA2 inhibitors thapsigargin (TA) or CPA.

[8] = system: mouse embryonic fibroblasts (MEFs); assay: RT-qPCR of Ifnβ mRNA in MEFs stimulated with ADUS-100 with or without thapsigargin; type: cell-based; conditions: MEF, 6 h, TA 12.5 nM or 6.25 nM in combination with ADU-S100 5 μM (FIG. 6A)
Experimental: as §1, §2, §3, §7

[9] = system: Panc02 murine pancreatic cell line; assay: RT-qPCR of Cxcl10 mRNA in Panc02 cells stimulated with ADUS-100 with or without thapsigargin; type: cell-based; conditions: Panc02, 6 h, TA 12.5 nM or 6.25 nM in combination with ADU-S100 5 μM (FIG. 7C)
Experimental: as §4, §5

[10] = system: KPC murine pancreatic cell line; assay: RT-qPCR of Cxcl10 mRNA in KPC cells stimulated with ADUS-100 with or without thapsigargin; type: cell-based; conditions: 6 h, TA 12.5 nM or 6.25 nM in combination with ADU-S100 5 μM (FIG. 7A)
Experimental: as §4, §5

Sequence of SERCA2 (P16615 whole entry): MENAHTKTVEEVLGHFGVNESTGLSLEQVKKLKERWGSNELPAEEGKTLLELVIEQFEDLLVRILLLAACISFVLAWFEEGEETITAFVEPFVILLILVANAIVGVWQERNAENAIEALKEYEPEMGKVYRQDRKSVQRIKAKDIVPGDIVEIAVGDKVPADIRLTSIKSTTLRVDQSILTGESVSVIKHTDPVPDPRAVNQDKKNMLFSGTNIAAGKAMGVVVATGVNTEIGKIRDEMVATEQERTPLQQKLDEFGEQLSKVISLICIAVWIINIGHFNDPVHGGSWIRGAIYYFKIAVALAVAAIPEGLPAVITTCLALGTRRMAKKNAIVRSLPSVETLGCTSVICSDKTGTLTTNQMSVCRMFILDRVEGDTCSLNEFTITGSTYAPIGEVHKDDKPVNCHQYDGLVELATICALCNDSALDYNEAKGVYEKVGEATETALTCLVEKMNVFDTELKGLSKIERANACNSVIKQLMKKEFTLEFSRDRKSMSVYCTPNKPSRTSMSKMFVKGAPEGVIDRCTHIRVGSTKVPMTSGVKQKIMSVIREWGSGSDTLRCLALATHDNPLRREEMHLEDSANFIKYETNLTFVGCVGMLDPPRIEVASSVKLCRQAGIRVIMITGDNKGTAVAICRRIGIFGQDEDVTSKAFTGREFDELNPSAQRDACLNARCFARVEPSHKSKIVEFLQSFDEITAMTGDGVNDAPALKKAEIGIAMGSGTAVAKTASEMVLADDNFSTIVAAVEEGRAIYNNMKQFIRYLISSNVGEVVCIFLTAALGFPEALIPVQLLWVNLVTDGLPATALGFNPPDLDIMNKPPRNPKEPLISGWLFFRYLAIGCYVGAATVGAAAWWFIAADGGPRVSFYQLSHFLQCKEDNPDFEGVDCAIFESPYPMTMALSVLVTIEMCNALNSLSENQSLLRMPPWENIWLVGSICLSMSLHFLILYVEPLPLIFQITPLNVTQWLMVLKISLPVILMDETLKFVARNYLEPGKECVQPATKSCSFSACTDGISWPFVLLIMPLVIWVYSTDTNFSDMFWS

Structure (SMILES): Nc1ncnc2c1ncn2[C@@H]1O[C@@H]2COP(=O)([S-])O[C@@H]3[C@H](O)[C@@H](COP([O-])(=S)O[C@H]2[C@H]1O)O[C@H]3n1cnc2c(N)ncnc21.[Na+].[Na+] (some centres unmarked) [ADU-S100]
- cell toxicity (viability level) [1]: low cell toxicity
- cell toxicity (viability level) [2]: low cell toxicity
- cell toxicity (viability level) [3]: low cell toxicity
- macroscopic observation of skin at the injection site (signs of toxicity) [4]: did not display signs of toxicity

Structure (SMILES): Cc1ccc2cccc(NC(=O)c3ccc(OC(C)C)cc3)c2n1 [CDN-1163, N-(2-methylquinolin-8-yl)-4-propan-2-yloxybenzamide]
- IFN-β gene expression [5]: inhibits

Structure (SMILES): CC(=O)C1=C(O)[C@@H]2[C@H]3c4c[nH]c5cccc(c45)C[C@H]3C(C)(C)N2C1=O [CPA, (6aR,11aS,11bR)-10-Acetyl-11-hydroxy-7,7-dimethyl-2,6,6a,7,11a,11b-hexahydro-9H-pyrrolo[1′,2′:2,3]isoindolo[4,5,6-cd]indol-9-one]
- IC50 [6]: < 2500 nM
- CXCL10 mRNA levels [7]: increase
- IFN-β mRNA levels [7]: increase
- ISG15 mRNA levels [7]: increase

Structure (SMILES): C/C=C(/C)C(=O)O[C@H]1C(C)=C2[C@H]([C@@H]1OC(=O)CCCCCCC)[C@@](C)(OC(C)=O)C[C@H](OC(=O)CCC)[C@@]1(O)[C@H]2OC(=O)[C@@]1(C)O [Thapsigargin, (3S,3aR,4S,6S,6aR,7S,8S,9bS)-6-(Acetyloxy)-4-(butyryloxy)-3,3a-dihydroxy-3,6,9-trimethyl-8-{[(2Z)-2-methylbut-2-enoyl]oxy}-2-oxo-2,3,3a,4,5,6,6a,7,8,9b-decahydroazuleno[4,5-b]furan-7-yl octanoate]
- induced inflammation marker Interferon-β (IFN-β) [8]: potentiation
- cell toxicity (viability level) [1]: low cell toxicity
- IC50 [6]: < 15 nM
- induced inflammation marker CXCL10 cytokine [9]: potentiation
- CXCL10 mRNA levels [7]: increase
- IFN-β mRNA levels [7]: increase
- ISG15 mRNA levels [7]: increase
- cell toxicity (viability level) [2]: low cell toxicity
- cell toxicity (viability level) [3]: low cell toxicity
- induced inflammation marker CXCL10 cytokine [10]: potentiation
- macroscopic observation of skin at the injection site (signs of toxicity) [4]: did not display signs of toxicity
